Assay results reported in patent US11136342B2, “Carbonate prodrugs and methods of using the same” (Acorda Therapeutics, Inc., priority 2008, dated 2021).
Converted amounts (≈) assume the structure as drawn. Read-outs that look alike come from different tables or passages of the source.

What was measured:
Type in all cases: physicochemical
[1] = Prodrug stability in propylene glycol-d8 at low temperature by 1H NMR
Description: Two samples of (4-acetamidophenyl carbonic) phosphoric anhydride (20 mg each) were dissolved in propylene glycol-d8 (600 mg) and the samples were stored at 4° C. and −20° C.

[2] = Prodrug stability in D2O by proton NMR; details: for Remaining Prodrug: water (D2O), room temperature
Description: (4-acetamidophenyl carbonic) phosphoric (29.5 mg) was dissolved in D2O (0.7 mL) and monitored by proton NMR.

[3] = Solubility of the prodrug in water, glycerol and propylene glycol; details: for solubility: thermodynamic from solid
Description: Solubility of the prodrug (4-acetamidophenyl carbonic) phosphoric anhydride was determined in water, glycerol, and propylene glycol. 10 mg of (4-acetamidophenyl carbonic) phosphoric anhydride was weighed into a vial, small amounts of solvent were added and the mixture was sonicated until a solution formed.

[4] = Prodrug stability in propylene glycol-d8 at room temperature by 1H and 31P NMR
Description: (4-acetamidophenyl carbonic) phosphoric anhydride (20.4 mg) was dissolved in 600 mg propylene glycol-d8 and ^1H and ^31P NMR spectra were recorded at room temperature. In addition to (4-acetamidophenyl carbonic) phosphoric anhydride (d−766 ppm), there were peaks at d+334, 265 (likely H3PO4) and +203 ppm.

Structure (SMILES): CC(=O)Nc1ccc(OC(=O)OP(=O)(O)O)cc1 [(4-acetamidophenyl carbonic) phosphoric anhydride]
- Effect of low temperature storage on stability ([1]; propylene glycol-d8, 4° C. and −20° C.): low temperature storage improved the stability
- Acetaminophen Formation ([1]; propylene glycol-d8, 4° C., 0.17 h): 7.1%
- Acetaminophen Formation ([1]; propylene glycol-d8, 4° C., 19.3 h): 37.8%
- Acetaminophen Formation ([1]; propylene glycol-d8, 4° C., 44.5 h): 58.5%
- Acetaminophen Formation ([1]; propylene glycol-d8, 4° C., 68.7 h): 71.5%
- Acetaminophen Formation ([1]; propylene glycol-d8, 4° C., 94.0 h): 79.3%
- Acetaminophen Formation ([1]; propylene glycol-d8, 4° C., 116 h): 83.1%
- Acetaminophen Formation ([1]; propylene glycol-d8, 4° C., 140 h): 84.6%
- Acetaminophen Formation ([1]; propylene glycol-d8, −20° C., 0.17 h): 10.1%
- Acetaminophen Formation ([1]; propylene glycol-d8, −20° C., 19.3 h): 15.0%
- Acetaminophen Formation ([1]; propylene glycol-d8, −20° C., 44.5 h): 20.5%
- Acetaminophen Formation ([1]; propylene glycol-d8, −20° C., 68.7 h): 25.0%
- Acetaminophen Formation ([1]; propylene glycol-d8, −20° C., 94.0 h): 29.0%
- Acetaminophen Formation ([1]; propylene glycol-d8, −20° C., 116 h): 32.2%
- Acetaminophen Formation ([1]; propylene glycol-d8, −20° C., 140 h): 36.2%
- half-life at 42.1 mg/mL ([2]; D2O, 29.5 mg in 0.7 mL): ~1.5 h
- Remaining Prodrug ([2]; 3 min): 94.4%
- Remaining Prodrug ([2]; 9 min): 90.3%
- Remaining Prodrug ([2]; 14 min): 86.4%
- Remaining Prodrug ([2]; 29 min): 75.7%
- Remaining Prodrug ([2]; 39 min): 70.9%
- Remaining Prodrug ([2]; 49 min): 65.6%
- Remaining Prodrug ([2]; 60 min): 61.0%
- Remaining Prodrug ([2]; 75 min): 55.5%
- Remaining Prodrug ([2]; 90 min): 50.6%
- Remaining Prodrug ([2]; 105 min): 46.0%
- Remaining Prodrug ([2]; 120 min): 41.7%
- Remaining Prodrug ([2]; 146 min): 36.7%
- Remaining Prodrug ([2]; 188 min): 29.3%
- Remaining Prodrug ([2]; 270 min): 20.2%
- Remaining Prodrug ([2]; 375 min): 13.9%
- Remaining Prodrug ([2]; 420 min): 11.7%
- Remaining Prodrug ([2]; 495 min): 8.4%
- Remaining Prodrug ([2]; 840 min): 3.0%
- Remaining Prodrug ([2]; 1410 min): 1.4%
- solubility ([3]; organic solvent or mixture, glycerol d=1.25 g/mL, read-out: Solubility in glycerol): 20.6 mg/mL (≈ 74.9 mM)
- solubility ([3]; organic solvent or mixture, propylene glycol d=1.036 g/mL, read-out: Solubility in propylene glycol): 154 mg/mL (≈ 560 mM)
- solubility ([3]; water, room temperature, read-out: Solubility in water): 152 mg/mL (≈ 552 mM)
- Water solubility relative to acetaminophen ([3]; water, room temperature): more than 10 times
- half-life at 34 mg/g solvent [4]: ~6.3 h
- Remaining Prodrug 1H NMR ([4]; 10 min): 94.03%
- Remaining Prodrug 31P NMR ([4]; 10 min): 96.7%
- Remaining Prodrug 1H NMR ([4]; 18 min): 92.64%
- Remaining Prodrug 31P NMR ([4]; 18 min): 94.5%
- Remaining Prodrug 1H NMR ([4]; 28 min): 90.79%
- Remaining Prodrug 31P NMR ([4]; 28 min): 92.1%
- Remaining Prodrug 1H NMR ([4]; 41 min): 88.57%
- Remaining Prodrug 31P NMR ([4]; 41 min): 89.9%
- Remaining Prodrug 1H NMR ([4]; 51 min): 86.84%
- Remaining Prodrug 31P NMR ([4]; 51 min): 88.4%
- Remaining Prodrug 1H NMR ([4]; 61 min): 85.36%
- Remaining Prodrug 31P NMR ([4]; 61 min): 86.4%
- Remaining Prodrug 1H NMR ([4]; 70 min): 83.93%
- Remaining Prodrug 31P NMR ([4]; 70 min): 85.0%
- Remaining Prodrug 1H NMR ([4]; 120 min): 74.63%
- Remaining Prodrug 31P NMR ([4]; 120 min): 77.6%
- Remaining Prodrug 1H NMR ([4]; 169 min): 68.80%
- Remaining Prodrug 31P NMR ([4]; 169 min): 71.7%
- Remaining Prodrug 1H NMR ([4]; 228 min): 62.97%
- Remaining Prodrug 31P NMR ([4]; 228 min): 64.9%
- Remaining Prodrug 1H NMR ([4]; 297 min): 56.82%
- Remaining Prodrug 31P NMR ([4]; 297 min): 57.4%
- Remaining Prodrug 1H NMR ([4]; 345 min): 52.10%
- Remaining Prodrug 31P NMR ([4]; 345 min): 52.8%
- Remaining Prodrug 1H NMR ([4]; 380 min): 49.13%
- Remaining Prodrug 31P NMR ([4]; 380 min): 49.6%
- Remaining Prodrug 1H NMR ([4]; 425 min): 46.33%
- Remaining Prodrug 31P NMR ([4]; 425 min): 46.6%
- Remaining Prodrug 1H NMR ([4]; 446 min): 45.67%
- Remaining Prodrug 31P NMR ([4]; 446 min): 44.0%
- Remaining Prodrug 1H NMR ([4]; 1269 min): 19.61%
- Remaining Prodrug 31P NMR ([4]; 1269 min): 17.1%
